“Also recorded” adds a separate entry of the source.
Columns and labels:
[1] = test system: panel of 55 central nervous system targets; assay: Competitive radioligand binding selectivity panel (Eurofins Discovery)
Description: Figure S3. Selectivity profiles for (+)-JRT and (–)-JRT across 55 central nervous system targets. The effects of (+)- JRT (10 μM) and (–)-JRT (10 μM) on a wide range of targets were assessed by Eurofins Discovery. Data represent % inhibition of the binding of a radioactively labeled ligand specific for each target. Assays were conducted in duplicate and the results were averaged.
Data Analysis and Statistics. Treatments were randomized, and data were analyzed by experimenters blinded to treatment conditions. Statistical analyses were performed using GraphPad Prism (version 10.0.3) unless noted otherwise.
All comparisons were planned prior to performing each experiment. No data were excluded. Data are represented as mean ± SEM, unless noted otherwise, with asterisks indicating *p < 0.05, **p < 0.01, ***p < 0.001, and ****p < 0.0001. Details of all statistical tests are shown in SI Appendix, Table S1. […]
Both (+)-JRT and (–)-
JRT were synthesized in-house and judged to be analytically pure based on NMR and LC-MS data. For cell culture experiments, VEH = 0.1% (agonist studies) or 0.2% (antagonist studies) molecular biology grade dimethyl sulfoxide (Sigma-Aldrich). For in vivo experiments, compounds were administered i.p. at 5 mL/kg using 0.9% saline as the vehicle, unless noted otherwise. VEH = USP grade saline (0.9%). Stock solutions for behavioral assays were prepared fresh before use.
Fumarate salts of (+)-JRT and (–)-JRT were used for all biological studies unless noted otherwise.
Animals. All experimental procedures involving animals were approved by the Institutional Animal Care and Use Committee (IACUC) at the University of California, Davis, the Salk Institute, Weill Cornell Medicine, McLean Hospital (Harvard Medical School), or the Contract Research Organization (CRO) where the study was performed. All procedures involving animals adhered to principles described in the National Institutes of Health Guide for the Care and Use of Laboratory Animals.
Animals were either obtained from Jackson Laboratory (Sacramento, C.A.) or bred in-house unless noted otherwise. Power analyses were conducted to ensure appropriate sample sizes for all experiments involving animals. Animals were housed 2–5 animals of the same sex per cage on a 12h light/dark cycle and were given ad libitum access to food and water unless noted otherwise. The University of California, Davis, the Salk Institute, and Weill Cornell Medicine are accredited by the Association for Assessment and Accreditation of Laboratory Animal Care International (AAALAC). Whenever possible, both sexes were utilized. However, a single sex was utilized in some cases when 1) a contract research organization had only […]
Radioligand Binding Selectivity Panel. Competitive radioligand binding studies for (+)-JRT (10 μM) and (–)-JRT (10 μM) were performed across a panel of receptors at Eurofins Discovery. Experiments were performed using the free bases of […]
radioligand and source of receptor (5,6,7,8,9,10,11,12).
Radioligand Binding Assays (5-HT2AR and 5-HT2CR). The 5-HT2AR and 5-HT2CR competitive radioligand binding assays were performed at Epics Therapeutics S.A. (Belgium, FAST-0505B) using conventional methods. Experiments were performed using the free bases of (+)-JRT and (–)-JRT. […] Nonspecific binding was determined by co-incubation with 200-fold excess of cold competitor DOI. […]

[2] = target: T1, U2OS cells expressing 5-HT2ARs (β-arrestin recruitment) (Homo sapiens, UniProt P28223); assay: PathHunter β-arrestin agonist assay; assay type: cell-based; conditions: free base
T1 construct: host or cells: U2OS
T1 sequence (P28223 whole entry): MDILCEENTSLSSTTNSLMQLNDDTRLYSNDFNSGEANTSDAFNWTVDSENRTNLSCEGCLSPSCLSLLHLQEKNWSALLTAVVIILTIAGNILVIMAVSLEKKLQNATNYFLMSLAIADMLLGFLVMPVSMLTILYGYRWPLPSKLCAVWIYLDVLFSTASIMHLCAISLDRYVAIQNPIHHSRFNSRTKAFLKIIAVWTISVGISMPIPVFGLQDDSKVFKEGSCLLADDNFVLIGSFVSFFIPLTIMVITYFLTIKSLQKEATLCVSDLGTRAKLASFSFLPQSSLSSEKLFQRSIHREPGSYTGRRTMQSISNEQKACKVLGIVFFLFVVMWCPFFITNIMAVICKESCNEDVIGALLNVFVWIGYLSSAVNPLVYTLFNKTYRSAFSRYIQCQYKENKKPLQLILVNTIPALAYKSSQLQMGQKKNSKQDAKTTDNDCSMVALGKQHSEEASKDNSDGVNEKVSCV
Description: (D) The PathHunter® β-arrestin assay was used to
b-Arrestin Activation (PathHunter®). The 5-HT2AR PathHunter® b-arrestin agonist assay was performed at Eurofins
DiscoverX (Frement, CA, Catalog # 86-0001P-2090AG).
The PathHunter® β-arrestin assay monitors the activation of a GPCR in a homogenous, non-imaging assay format
using a technology developed by DiscoverX called Enzyme Fragment Complementation (EFC) with β-galactosidase (β-Gal)
as the functonal reporter.
PK and EA are then expressed as fusion proteins in U2OS cells,
with PK fused to the GPCR of interest, and EA fused to b-arrestin. When the target GPCR is activated and β-arrestin is

**Q.** Which “Selectivity across panel of 55 central nervous system targets” value ([1]; 10 μM, free bases) does the source give for `CCN(CC)C(=O)[C@@H]1C=C2c3cccc4ccn(c34)C[C@H]2N(C)C1` [(+)-JRT] here?
**A.** Its value is “highly selective for a subset of serotonin receptors”.

**Q.** What about the “Affinity for dopamine, histamine, or adrenergic receptors” value ([1]; radioligand binding, unlike LSD) of the same compound?
**A.** The value was “neither of these compounds exhibited affinity”.

**Q.** And the “Affinity for dopamine, histamine, muscarinic, and adrenergic receptors” value ([1]; unlike CLZ)?
**A.** The value was “lacks affinity”.

**Q.** What about the “β-arrestin recruitment through 5-HT2A receptor activation” value [2] of the same compound?
**A.** The value was “potent partial agonist; also recorded: not able to recruit β-arrestin through 5-HT2A receptor activation with high efficacy”.
